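Each compound was tested at five concentrations against cells in 96-well plates for 48 hours. GI50 is the concentration that inhibits growth by half. TGI marks complete inhibition of growth.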

Test systems include NCI-H226 lung; SR leukemia; SK-OV-3 ovarian; CCRF-CEM leukemia; SW-620 colon; SF-268 CNS; 786-0 renal; OVCAR-8 ovarian; SF-539 CNS.
Assay in all cases: NCI tumour cell line growth inhibition, 48 h

As to `O=C1CC[C@@]2(O)[C@H]3Cc4ccc(-c5ccccc5)c5c4[C@@]2(CCN3CC2CC2)[C@H]1O5`, the TGI in the assay with NCI-H226 lung was 50.1 µM; in the assay with SR leukemia it was > 100 µM; with SK-OV-3 ovarian, 54 µM; in the assay on CCRF-CEM leukemia, 49.7 µM; with SW-620 colon, 25 µM; in the assay with SF-268 CNS it was 29.7 µM. The TGI in the assay with 786-0 renal came out at 30.3 µM; in the assay with OVCAR-8 ovarian, 32.4 µM; in the assay on SF-539 CNS, 33.5 µM.
In the case of `CCN(CC)CCN1C(=O)c2c(c3c4ccccc4[nH]c3c3ccc4ccccc4c23)C1=O`, the GI50 with SK-OV-3 ovarian is 1.57 µM; in the assay with SW-620 colon it was 1.31 µM; in the assay on OVCAR-8 ovarian, 1.78 µM; with SF-539 CNS, 1.7 µM. Moreover, the TGI was found to be 3.01 µM with SK-OV-3 ovarian, 2.97 µM in the assay with SW-620 colon, 4.74 µM in the assay with OVCAR-8 ovarian and 3.08 µM in the assay on SF-539 CNS.
As for `C=C1C(=O)O[C@@H]2[C@H](O)[C@@H](C)[C@@H]3C=CC(=O)[C@@]3(C)[C@@H](OC(=O)/C(C)=C/C)[C@H]12`, the TGI with NCI-H226 lung came out at 8.97 µM; with SK-OV-3 ovarian, 14.1 µM; in the assay on CCRF-CEM leukemia it was 2.05 µM; with SW-620 colon, 1.14 µM; in the assay on SF-268 CNS it was 3.84 µM; in the assay on OVCAR-8 ovarian, 2.72 µM. The TGI with SF-539 CNS came to 1.96 µM.
In the case of `COCN1COCN=C1NC#N`, the TGI is > 100 µM in the assay with NCI-H226 lung; > 100 µM in the assay on SR leukemia; > 100 µM in the assay with SK-OV-3 ovarian; 66.8 µM with SW-620 colon; > 100 µM in the assay with SF-268 CNS; > 100 µM in the assay with 786-0 renal. The TGI with OVCAR-8 ovarian and in the assay with SF-539 CNS was > 100 µM throughout.
Take `C=C(NC(=O)C(=C)NC(=O)c1csc(C2=NC3c4csc(n4)C4NC(=O)c5csc(n5)C(C(C)(O)C(C)O)NC(=O)C5CSC(=N5)/C(=C/C)NC(=O)C(C(C)O)NC(=O)c5csc(n5)C3(CC2)NC(=O)C(C)NC(=O)C(=C)NC(=O)C(C)NC(=O)C(C(C)CC)NC2C=Cc3c(C(C)O)cc(nc3C2O)C(=O)OC4C)n1)C(N)=O` (centres undefined): the TGI was 3.8 µM in the assay on NCI-H226 lung; > 67.8 µM with SK-OV-3 ovarian; 3.49 µM in the assay with CCRF-CEM leukemia; 1.62 µM with SW-620 colon; > 100 µM in the assay with SF-268 CNS; 3.26 µM in the assay with 786-0 renal. For the same compound, the TGI came to 10.8 µM in the assay with OVCAR-8 ovarian and 4.13 µM in the assay on SF-539 CNS. Moreover, the GI50 with SF-268 CNS is 4.74 µM; in the assay with OVCAR-8 ovarian it was 1.6 µM.
For the compound `COc1ccc([C@@H]2CC(=O)N2)cc1`, the TGI with NCI-H226 lung, in the assay with SR leukemia, with SK-OV-3 ovarian, with CCRF-CEM leukemia, with SF-268 CNS and in the assay on 786-0 renal was > 100 µM throughout. For the same compound, the TGI with OVCAR-8 ovarian and in the assay with SF-539 CNS was > 100 µM each time.
On to `O=C(c1ccccc1)C1S(=O)(=O)OCCOS1(=O)=O`, for which the TGI in the assay on SR leukemia, in the assay on SK-OV-3 ovarian, in the assay on CCRF-CEM leukemia, with SW-620 colon, in the assay on SF-268 CNS and with 786-0 renal was > 100 µM throughout. Moreover, the TGI in the assay on OVCAR-8 ovarian and in the assay with SF-539 CNS was > 100 µM throughout.
Take `O=C1CC(c2ccccc2)=Nc2ccccc2N1`: the TGI is > 100 µM in the assay on NCI-H226 lung; > 100 µM with SR leukemia; > 100 µM with SK-OV-3 ovarian; > 100 µM in the assay on CCRF-CEM leukemia; 51.8 µM with SW-620 colon; > 100 µM in the assay with SF-268 CNS. In addition, the TGI with 786-0 renal, in the assay on OVCAR-8 ovarian and in the assay with SF-539 CNS was > 100 µM throughout.
Turning to `COc1cc(OC)c2c3c(OC)cc(OC)c4c(=O)c(O)c(C[C@@H](C)O)c(c5c(C[C@@H](C)O)c(O)c(=O)c1c25)c43`, the TGI is 44.7 µM in the assay with NCI-H226 lung; > 100 µM in the assay on SK-OV-3 ovarian; 35.6 µM with SW-620 colon; 70.4 µM in the assay on SF-268 CNS; 44.8 µM with 786-0 renal; 58.4 µM in the assay with OVCAR-8 ovarian. This compound gave a TGI in the assay on SF-539 CNS of 93.5 µM.
As for `S=c1[nH]n2c(CCCCCCCCc3nnc4sc(=S)[nH]n34)nnc2s1`, the TGI in the assay on NCI-H226 lung, with SR leukemia, in the assay with SK-OV-3 ovarian, with CCRF-CEM leukemia, with SW-620 colon and in the assay with SF-268 CNS was > 100 µM each time. For the same compound, the TGI in the assay on 786-0 renal, in the assay on OVCAR-8 ovarian and in the assay with SF-539 CNS was > 100 µM throughout.
With `O=C(c1ccc(Cl)cc1)N(C(=S)N1CCN(c2ccccn2)CC1)C1CCCCC1`, the TGI in the assay on NCI-H226 lung was 70.5 µM; with SR leukemia it was > 100 µM; in the assay with SK-OV-3 ovarian, > 100 µM; with CCRF-CEM leukemia, > 100 µM; with SW-620 colon it was > 100 µM; in the assay on SF-268 CNS, > 100 µM. Also, the TGI in the assay on 786-0 renal, with OVCAR-8 ovarian and in the assay with SF-539 CNS was > 100 µM throughout.
On to `N#C/C(=C/c1ccc2c(c1)OCO2)C(=O)c1ccccc1`, for which the TGI with SK-OV-3 ovarian, in the assay with CCRF-CEM leukemia, in the assay with SW-620 colon, in the assay on SF-268 CNS, with 786-0 renal and in the assay with OVCAR-8 ovarian was > 100 µM throughout. Besides, the TGI in the assay on SF-539 CNS was > 100 µM.

The values are drawn from PubChem BioAssay (NCI).
